Test results as given in US9163003B2, “4-piperidinyl compounds for use as tankyrase inhibitors” (NOVARTIS AG, priority 2011, dated 2015).

Legend:
[1] = target: tankyrase 2 protein PARP domain, TNKS2P (GST-tagged) (Homo sapiens (Human), UniProt Q9H2K2); assay: TNKS2 autoparsylation (AP) biochemical assay, LC/MS detection of nicotinamide; details: 20 nM enzyme, 250 μM NAD+, 60 min room temperature
[2] = target: human tankyrase 1 PARP catalytic domain, TNKS1P (GST-tagged) (Homo sapiens (Human), UniProt O95271); assay: TNKS1 autoparsylation (AP) biochemical assay, LC/MS detection of nicotinamide; details: 20 nM enzyme, 250 μM NAD+, 60 min room temperature
Method: The human tankyrase 1 PARP catalytic domain, TNKS1P, was cloned into a pDONR221 vector using the Invitrogen Gateway Technology. This entry clone was then subcloned into the destination vector pDEST20 to obtain the N-terminal Glutathione S-transferase (GST)-tagged fusion protein.
The autoparsylation activity of the TNKS 1/2 or PARP1/2 enzymes was measured by the liquid chromatography-mass spectrometry (LC/MS) detection of nicotinamide as readout. Compound activity in inhibiting the TNKS and PARP autoparsylation was evaluated by IC50 measurements.

[3] = system: Wnt ligand-induced signaling; assay: Wnt-responsive Super-TOpFlash (STF) luciferase reporter gene assay in HEK293 cells; assay type: cell-based; details: Homo sapiens, Wnt3A condition medium induced
Method: Compound activity in inhibiting Wnt ligand-induced signaling was measured using a Wnt-responsive Super-TOpFlash (STF) luciferase reporter gene assay in HEK293 cells. On day 1 of the assay, cells were plated at a density of 8000 cells per well of 384-well plate in 25 μl medium containing 5% fetal bovine serum (FBS). On the second day, […] condition medium (CM) produced from mouse L cells was added to the cells to induce Wnt signaling, followed by addition of 5 μL of compounds each well in 10-point serial dilution. On the third day, the luciferase activity was measured by the Bright-Glo™ Luciferase Assay System following manufacture's protocol (Promega, E2620). The Inhibition was calculated as: (Maximum Wnt-induced signaling−Sample)/(Maximum Wnt-induced signaling−Background)*100. “Maximum Wnt-induced signaling” is the STF signal level induced by 20% Wnt3A CM without compound; and “Background” is the STF signal level without the addition of Wnt3A CM or compound.

Axin2 protein = assay: Cellular ELISA assay for stabilizing the Axin2 protein in SW480 cells; assay type: cell-based; details: Homo sapiens, 24 hrs treatment, read-out: Axin AC50
Method: Compound activity in stabilizing the Axin2 protein was measured by Sandwich Enzyme-Linked Immuosorbent (ELISA) assay in the colorectal cell line SW480. 30,000 SW480 cells were seeded per well in 96-well plate and incubated overnight prior to compound treatment. Cells were then treated with compounds in 6-point dilution starting at 10 μM for 24 hrs. Cells were then washed with 100 μL of cold Phosphate Buffer Saline (PBS), and lysed in 125 μl of cold 1× lysis buffer (Cell Signaling Technology, 9803) supplemented with Protease inhibitor (Roche, 11836170) and Phosphatase inhibitors (Sigma, P2850, P5726). For the ELISA assay, anti Axin-2 capture antibody (Strategic Diagnostics) antibody was diluted to a concentration of 1 μg/ml (1:1000) in Carbonate Coating buffer, pH 9.2 (Sigma, C3041-50CAP). 100μ of the diluted anti Axin-2 capture antibody per well was then used to coat the 96-well ELISA plate (Thermo Electron Corp., MicroLite 1 flat bottom plate #7571) overnight at 4° C. Plates were then washed three times with 300 μl/well of wash solution, PBST20 (PBS+0.05% Tween), and blocked with 300 μl/well 1% BSA/PBS (BSA, Millipore Probumin #82-045-1) for 1.5 hours at room temperature while shaking gently. After blocking, plates were then washed three times with 300 μl/well of wash solution. 100 μL of prepared SW480 cell lysate was then added to each well and incubated at room temperature for 2 hours while shaking gently. After washing, 100 μL of Biotinylated anti-Axin2 antibody (CST, 2151) was added to each well and incubated room temperature for 2 hours. 100 μL of Streptavidin-HRP (R&D systems, DY998) diluted 1:200 in 1% BSA/PBS was then added in each well and incubate for 30 mins at R/T in the dark. Signal was detected by Chemiluminescence (Pierce SuperSignal ELISA Femto #3704), and measured on PerkinElmer Wallac 1420 plate reader.

[4] = system: Non-small lung cancer ABC-1 cells; assay: Cellular proliferation assay, ABC-1 cells (CellTiter-Glo); assay type: cell-based; details: Homo sapiens, 72 h, 3 days of compound treatment
Method: Non-small lung cancer ABC-1 cells were plated at 5000 cells per well in 96-well plates and treated with 8 serial compound dilutions starting from 10 μM as the highest concentration. Viable cells were measured after 3 days of compound treatment using the CellTiter-Glo assay (Promega, G7570). Assay was performed following the manufacture protocol.

Human PARP1 = Human PARP1 (Homo sapiens (Human), UniProt P09874); assay: PARP1 autoparsylation biochemical assay, LC/MS detection of nicotinamide; details: read-out: PARP1 IC50, 20 nM enzyme, 250 μM NAD+, 60 min room temperature
PARP2 = PARP2 (Mus musculus (Mouse), UniProt O88554); assay: PARP2 autoparsylation biochemical assay, LC/MS detection of nicotinamide; details: read-out: PARP2 Ic50, 20 nM enzyme, 250 μM NAD+, 60 min room temperature
[5] = system: Herpes Simplex Virus (HSV); details: cited from earlier work

Sequence of tankyrase 2 protein PARP domain, TNKS2P (GST-tagged) (Q9H2K2 959-1164): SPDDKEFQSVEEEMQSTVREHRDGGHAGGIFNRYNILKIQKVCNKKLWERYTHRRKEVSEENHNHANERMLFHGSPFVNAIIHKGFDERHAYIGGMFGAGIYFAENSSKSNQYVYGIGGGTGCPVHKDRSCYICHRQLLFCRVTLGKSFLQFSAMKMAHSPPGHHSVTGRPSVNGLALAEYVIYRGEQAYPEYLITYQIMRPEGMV
Sequence of PARP2 (O88554 whole entry): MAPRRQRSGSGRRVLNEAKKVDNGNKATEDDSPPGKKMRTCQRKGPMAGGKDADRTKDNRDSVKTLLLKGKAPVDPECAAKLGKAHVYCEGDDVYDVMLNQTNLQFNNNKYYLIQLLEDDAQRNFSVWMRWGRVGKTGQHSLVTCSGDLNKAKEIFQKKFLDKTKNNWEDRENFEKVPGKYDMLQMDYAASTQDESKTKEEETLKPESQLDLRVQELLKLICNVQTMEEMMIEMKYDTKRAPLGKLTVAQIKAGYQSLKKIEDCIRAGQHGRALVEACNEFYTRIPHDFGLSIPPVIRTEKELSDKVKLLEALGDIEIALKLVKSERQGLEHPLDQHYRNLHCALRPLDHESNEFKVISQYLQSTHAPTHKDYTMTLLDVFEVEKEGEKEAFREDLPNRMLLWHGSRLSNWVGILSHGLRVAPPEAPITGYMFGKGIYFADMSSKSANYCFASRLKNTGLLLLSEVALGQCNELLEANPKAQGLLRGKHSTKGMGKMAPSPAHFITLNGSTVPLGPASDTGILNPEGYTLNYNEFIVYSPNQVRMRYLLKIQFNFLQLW
Sequence of human tankyrase 1 PARP catalytic domain, TNKS1P (GST-tagged) (O95271 1112-1317): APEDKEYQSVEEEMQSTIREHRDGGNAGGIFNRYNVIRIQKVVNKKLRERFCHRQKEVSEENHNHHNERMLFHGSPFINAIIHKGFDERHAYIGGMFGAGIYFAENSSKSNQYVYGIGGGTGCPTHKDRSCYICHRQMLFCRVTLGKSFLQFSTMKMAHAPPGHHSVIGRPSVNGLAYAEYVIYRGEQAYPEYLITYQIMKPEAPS
Sequence of Human PARP1 (P09874 whole entry): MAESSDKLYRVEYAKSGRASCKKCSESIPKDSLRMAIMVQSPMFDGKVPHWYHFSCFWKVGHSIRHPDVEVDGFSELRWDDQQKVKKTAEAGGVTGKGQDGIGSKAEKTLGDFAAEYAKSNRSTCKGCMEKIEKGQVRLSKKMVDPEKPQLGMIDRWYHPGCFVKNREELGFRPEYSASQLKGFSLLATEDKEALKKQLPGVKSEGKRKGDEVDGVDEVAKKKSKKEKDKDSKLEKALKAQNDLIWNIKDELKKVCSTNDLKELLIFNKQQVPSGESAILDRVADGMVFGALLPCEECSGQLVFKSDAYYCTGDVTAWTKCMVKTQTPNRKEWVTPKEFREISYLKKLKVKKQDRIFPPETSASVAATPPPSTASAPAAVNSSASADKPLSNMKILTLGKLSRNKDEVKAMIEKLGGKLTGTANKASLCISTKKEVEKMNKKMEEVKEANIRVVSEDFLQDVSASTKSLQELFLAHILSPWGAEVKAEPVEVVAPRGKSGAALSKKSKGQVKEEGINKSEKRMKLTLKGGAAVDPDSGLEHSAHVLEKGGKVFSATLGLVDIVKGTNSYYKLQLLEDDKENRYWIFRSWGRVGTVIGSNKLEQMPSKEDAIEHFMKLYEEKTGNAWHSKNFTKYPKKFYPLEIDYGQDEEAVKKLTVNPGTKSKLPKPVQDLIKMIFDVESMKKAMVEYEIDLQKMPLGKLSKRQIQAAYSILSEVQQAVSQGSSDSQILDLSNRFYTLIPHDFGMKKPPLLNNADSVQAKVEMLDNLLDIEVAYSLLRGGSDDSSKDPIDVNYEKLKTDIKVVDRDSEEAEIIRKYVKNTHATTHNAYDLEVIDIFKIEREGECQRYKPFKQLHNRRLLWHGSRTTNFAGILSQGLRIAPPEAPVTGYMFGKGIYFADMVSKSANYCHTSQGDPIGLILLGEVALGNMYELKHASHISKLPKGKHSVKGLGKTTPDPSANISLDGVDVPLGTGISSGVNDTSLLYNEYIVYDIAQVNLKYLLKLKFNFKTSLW

Compound | IC50 [1] | IC50 [2] | IC50 [3] | AC50 (Axin2 protein) | IC50 [4] | IC50 (Human PARP1) | IC50 (PARP2) | HSV viral growth [5] | HSV viral protein expression [5]
COc1ccc(C(=O)C2CCN([C@H]3CCN(Cc4nc5ccccc(=O)c5[nH]4)C3=O)CC2)cc1C [Example 28, 2-{(S)-3-[4-(4-Methoxy-3-methyl-benzoyl)-piperidin-1-yl]-2-oxo-pyrrolidin-1-ylmethyl}-3H-cycloheptaimidazol-4-one] | 7 ± 1 nM | 19.5 ± 3.5 nM | 1.5 ± 0.5 nM | 0.46 ± 0.2 nM | 0.8 ± 0.9 nM | 20.2 ± 1.5 µM | 2900 ± 300 nM | – | –
Oc1nc(-c2ccc(C(F)(F)F)cc2)nc2c1CSCC2 [XAV939] | – | – | – | – | – | – | – | decreased viral growth | suppressed HSV viral protein expression
